Measured values: US20250241892A1, “5-METHOXY-N,N-[…][…] THE TREATMENT OF PSYCHOMOTOR RETARDATION” (GH RESEARCH IRELAND LIMITED, priority 2022, published 2025)

Key:
[1] = Pharmacokinetics of 5-MeO-DMT and bufotenine after inhalation; type: in vivo, human
Experimental: Blood samples were obtained at 1; 2; 4; 7; 10; 15; 20; 30; 45 min and 1; 1.5; 2; 3; 4 hours after administration.
PK parameters were generated by algebraic analysis of the concentration versus time plots for each individual. The analysis was carried out using the software Phoenix WinNonlin 6.3.

[2] = tested on: patients with treatment-resistant major depressive disorder (TRD); test: Phase 1/2 clinical trial of inhaled 5-MeO-DMT in TRD; details: for Patients who experienced at least one ADR: n=4; for Patients with MADRS remission: n=4, day seven after dosing
Experimental: Patients were assigned to different groups. In the context of the present invention, the group who received a single, 12 mg dose and the group who underwent an intra-day individualized dosing regimen (IDR) that allowed for multiple, escalating doses (6 mg, 12 mg and 18 mg) within a single day, driven by the intensity of the patient-reported psychedelic experience are of interest.
This trial was designed in two parts. Part A was an open-label, single-arm, single-dose Phase 1 trial with two dose levels (12 mg (n=4) and 18 mg (n=4)). […] The primary endpoint of Part B was to assess the effects on the severity of depression, as assessed by the proportion of patients in remission on day seven after dosing, defined as a MADRS total score of less than or equal to 10.

[3] = TRD, 12 mg n=4, 2 hours after dose, baseline 16
[4] = TRD, 12 mg n=4, 3 hours after dose, baseline 18
[5] = TRD, 12 mg n=4, 3 hours after dose, baseline 25
[6] = TRD, 12 mg n=4, day 1, baseline 12
[7] = TRD, 12 mg n=4, day 1, baseline 13
[8] = TRD, 12 mg n=4, day 1, baseline 16
[9] = TRD, 12 mg n=4, day 1, baseline 25
[10] = TRD, 12 mg n=4, day 7, baseline 12
[11] = TRD, 12 mg n=4, day 7, baseline 13
[12] = TRD, 12 mg n=4, day 7, baseline 16
[13] = TRD, 12 mg n=4, day 7, baseline 25
[14] = TRD, IDR n=8, 2 hours after last dose, baseline 27
[15] = TRD, IDR n=8, 2 hours after last dose, baseline 28
[16] = TRD, IDR n=8, day 1, baseline 25
[17] = TRD, IDR n=8, day 1, baseline 27
[18] = TRD, IDR n=8, day 7, baseline 25
[19] = TRD, IDR n=8, day 7, baseline 27
[20] = TRD, IDR n=8, day 7, baseline 30

For COc1ccc2[nH]cc(CCN(C)C)c2c1 [5-MeO-DMT], the Detectability in plasma ([1]; 3 hours after inhalation, whole dose range 6, 12, 18 mg) was “no longer detectable”, the “Pharmacokinetic measurements with uptitration dosing schemes” value ([1]; compared with single doses) was “Substantially similar results” and the “Changes in safety laboratory analyses, vital signs, psychiatric safety assessments, measures of cognitive function” value ([2]; Part A and Part B) was “No clinically significant changes”. The SAEs reported ([2]; Part A, 12 mg and 18 mg groups) was “No SAEs”, the “Patients who experienced at least one ADR” value ([2]; Part A, 12 mg single dose) was 3 of 4 and the “Patients with MADRS remission” value ([2]; Part A, 12 mg) was 50%. The “Patients who experienced at least one ADR” value ([2]; Part A, 18 mg single dose) was 3 of 4, the “Patients with MADRS remission” value ([2]; Part A, 18 mg) was 25% and the “Outcome of ADRs” value ([2]; Part B, IDR, n=8) was “All ADRs resolved spontaneously”. For the same compound, the SAEs reported ([2]; Part B, IDR, n=8) was “No SAEs”, the “MADRS Suicidal Thoughts, sum of patient scores” value (shortened to “MADRS Suicidal Thoughts, sum”) ([2]; TRD, 12 mg n=4, 2 hours after dose, baseline 8) was 3 and the “MADRS Inner Tension, sum of patient scores” value (“MADRS Inner Tension, sum” for short) ([2]; TRD, 12 mg n=4, 2 hours after dose, baseline 13) was 2. The “MADRS Concentration Difficulties, sum of patient scores” value (“MADRS Concentration Difficulties, sum” below) [2, 3] was 7, the “MADRS Inability to Feel, sum of patient scores” value (“MADRS Inability to Feel, sum” below) [2, 3] was 9 and the “MADRS Lassitude, percentage improvement” value [2, 3] was 38%. The “MADRS Lassitude, sum of patient scores” value [2, 3] was 10, the “MADRS Pessimistic Thoughts, percentage improvement” value [2, 3] was 50.00% and the “MADRS Pessimistic Thoughts, sum of patient scores” value (shortened to “MADRS Pessimistic Thoughts, sum”) [2, 3] was 8. The “BPRS Blunted Affect, sum of patient scores” value (“BPRS Blunted Affect, sum” below) ([2]; TRD, 12 mg n=4, 3 hours after dose, baseline 11) was 8, the “BPRS Emotional Withdrawal, sum of patient scores” value (shortened to “BPRS Emotional Withdrawal, sum”) ([2]; TRD, 12 mg n=4, 3 hours after dose, baseline 13) was 11 and the “BPRS Tension, sum of patient scores” value ([2]; TRD, 12 mg n=4, 3 hours after dose, baseline 14) was 9. For the same compound, the “BPRS Guilt Feelings, percentage improvement” value [2, 4] was 50.00%, the “BPRS Guilt Feelings, sum of patient scores” value (shortened to “BPRS Guilt Feelings, sum”) [2, 4] was 9 and the “BPRS Anxiety, percentage improvement” value [2, 5] was 56.00%. For the same compound, the “BPRS Anxiety, sum of patient scores” value [2, 5] was 11, the “MADRS Suicidal Thoughts, sum” value ([2]; TRD, 12 mg n=4, day 1, baseline 8) was 5 and the “BPRS Blunted Affect, sum” value ([2]; TRD, 12 mg n=4, day 1, baseline 11) was 6. The “MADRS Reduced Sleep, percentage improvement” value [2, 6] was 17%, the “MADRS Reduced Sleep, sum of patient scores” value (“MADRS Reduced Sleep, sum” for short) [2, 6] was 10 and the “BPRS Emotional Withdrawal, sum” value [2, 7] was 8. For the same compound, the “MADRS Inner Tension, sum” value [2, 7] was 3, the “BPRS Tension, sum of patient scores” value ([2]; TRD, 12 mg n=4, day 1, baseline 14) was 6 and the “MADRS Concentration Difficulties, sum” value [2, 8] was 2. The “MADRS Inability to Feel, sum” value [2, 8] was 1, the “MADRS Lassitude, percentage improvement” value [2, 8] was 100% and the “MADRS Lassitude, sum of patient scores” value [2, 8] was 0. The “MADRS Pessimistic Thoughts, sum” value [2, 8] was 7, the “BPRS Guilt Feelings, sum” value ([2]; TRD, 12 mg n=4, day 1, baseline 18) was 5 and the “BPRS Anxiety, percentage improvement” value [2, 9] was 76.00%. For the same compound, the “BPRS Anxiety, sum of patient scores” value [2, 9] was 6, the “MADRS Suicidal Thoughts, sum” value ([2]; TRD, 12 mg n=4, day 7, baseline 8) was 7 and the “BPRS Blunted Affect, sum” value ([2]; TRD, 12 mg n=4, day 7, baseline 11) was 5. The “MADRS Reduced Sleep, percentage improvement” value [2, 10] was 50%, the “MADRS Reduced Sleep, sum” value [2, 10] was 6 and the “BPRS Emotional Withdrawal, sum” value [2, 11] was 6. For the same compound, the “MADRS Inner Tension, sum” value [2, 11] was 5, the “BPRS Tension, sum of patient scores” value ([2]; TRD, 12 mg n=4, day 7, baseline 14) was 6 and the “MADRS Concentration Difficulties, sum” value [2, 12] was 3. For the same compound, the “MADRS Inability to Feel, sum” value [2, 12] was 1, the “MADRS Lassitude, percentage improvement” value [2, 12] was 81% and the “MADRS Lassitude, sum of patient scores” value [2, 12] was 3. The “MADRS Pessimistic Thoughts, percentage improvement” value [2, 12] was 50.00%, the “MADRS Pessimistic Thoughts, sum” value [2, 12] was 8 and the “BPRS Guilt Feelings, sum” value ([2]; TRD, 12 mg n=4, day 7, baseline 18) was 5. The “BPRS Anxiety, percentage improvement” value [2, 13] was 76.00%, the “BPRS Anxiety, sum of patient scores” value [2, 13] was 6 and the “MADRS Suicidal Thoughts, sum” value ([2]; TRD, IDR n=8, 2 hours after last dose, baseline 11) was 3. The “MADRS Inner Tension, sum” value ([2]; TRD, IDR n=8, 2 hours after last dose, baseline 26) was 11, the “MADRS Lassitude, percentage improvement” value [2, 14] was 63% and the “MADRS Lassitude, sum of patient scores” value [2, 14] was 10. The “MADRS Pessimistic Thoughts, percentage improvement” value [2, 15] was 75.00%, the “MADRS Pessimistic Thoughts, sum” value [2, 15] was 7 and the “MADRS Concentration Difficulties, sum” value ([2]; TRD, IDR n=8, 2 hours after last dose, baseline 30) was 11. The “MADRS Inability to Feel, sum” value ([2]; TRD, IDR n=8, 2 hours after last dose, baseline 36) was 12, the “BPRS Emotional Withdrawal, sum” value ([2]; TRD, IDR n=8, 3 hours after last dose, baseline 13) was 8 and the “BPRS Blunted Affect, sum” value ([2]; TRD, IDR n=8, 3 hours after last dose, baseline 15) was 11. For the same compound, the “BPRS Tension, sum of patient scores” value ([2]; TRD, IDR n=8, 3 hours after last dose, baseline 16) was 11, the “BPRS Guilt Feelings, sum” value ([2]; TRD, IDR n=8, 3 hours after last dose, baseline 34) was 14 and the “BPRS Anxiety, sum of patient scores” value ([2]; TRD, IDR n=8, 3 hours after last dose, baseline 37) was 19. For the same compound, the “MADRS Suicidal Thoughts, sum” value ([2]; TRD, IDR n=8, day 1, baseline 11) was 1, the “BPRS Emotional Withdrawal, sum” value ([2]; TRD, IDR n=8, day 1, baseline 13) was 8 and the “BPRS Blunted Affect, sum” value ([2]; TRD, IDR n=8, day 1, baseline 15) was 8. For the same compound, the “BPRS Tension, sum of patient scores” value ([2]; TRD, IDR n=8, day 1, baseline 16) was 11, the “MADRS Reduced Sleep, percentage improvement” value [2, 16] was 52% and the “MADRS Reduced Sleep, sum” value [2, 16] was 12. For the same compound, the “MADRS Inner Tension, sum” value ([2]; TRD, IDR n=8, day 1, baseline 26) was 6, the “MADRS Lassitude, percentage improvement” value [2, 17] was 81% and the “MADRS Lassitude, sum of patient scores” value [2, 17] was 5. For the same compound, the “MADRS Pessimistic Thoughts, sum” value ([2]; TRD, IDR n=8, day 1, baseline 28) was 4, the “MADRS Concentration Difficulties, sum” value ([2]; TRD, IDR n=8, day 1, baseline 30) was 1 and the “BPRS Guilt Feelings, sum” value ([2]; TRD, IDR n=8, day 1, baseline 34) was 11. For the same compound, the “MADRS Inability to Feel, sum” value ([2]; TRD, IDR n=8, day 1, baseline 36) was 2, the “BPRS Anxiety, sum of patient scores” value ([2]; TRD, IDR n=8, day 1, baseline 37) was 16 and the “MADRS Suicidal Thoughts, sum” value ([2]; TRD, IDR n=8, day 7, baseline 11) was 3. For the same compound, the “BPRS Emotional Withdrawal, sum” value ([2]; TRD, IDR n=8, day 7, baseline 13) was 8, the “BPRS Blunted Affect, sum” value ([2]; TRD, IDR n=8, day 7, baseline 15) was 8 and the “BPRS Tension, sum of patient scores” value ([2]; TRD, IDR n=8, day 7, baseline 16) was 10. The “MADRS Reduced Sleep, percentage improvement” value [2, 18] was 64%, the “MADRS Reduced Sleep, sum” value [2, 18] was 9 and the “MADRS Inner Tension, sum” value ([2]; TRD, IDR n=8, day 7, baseline 26) was 12. The “MADRS Lassitude, percentage improvement” value [2, 19] was 89%, the “MADRS Lassitude, sum of patient scores” value [2, 19] was 3 and the “MADRS Pessimistic Thoughts, sum” value ([2]; TRD, IDR n=8, day 7, baseline 28) was 3. The “MADRS Concentration Difficulties, percentage improvement” value [2, 20] was 70.00%, the “MADRS Concentration Difficulties, sum” value [2, 20] was 9 and the “BPRS Guilt Feelings, sum” value ([2]; TRD, IDR n=8, day 7, baseline 34) was 10. For the same compound, the “MADRS Inability to Feel, sum” value ([2]; TRD, IDR n=8, day 7, baseline 36) was 6 and the “BPRS Anxiety, sum of patient scores” value ([2]; TRD, IDR n=8, day 7, baseline 37) was 17.
